The target in assay [1] is T1, Glycogen synthase kinase-3 beta (Homo sapiens, UniProt P49841). Briefly: Inhibition of GSK-3beta (unknown origin) using FAM-labeled peptide as substrate preincubated for 10 mins followed by substrate addition by caliper assay.
Target sequence in this assay (P49841 whole entry): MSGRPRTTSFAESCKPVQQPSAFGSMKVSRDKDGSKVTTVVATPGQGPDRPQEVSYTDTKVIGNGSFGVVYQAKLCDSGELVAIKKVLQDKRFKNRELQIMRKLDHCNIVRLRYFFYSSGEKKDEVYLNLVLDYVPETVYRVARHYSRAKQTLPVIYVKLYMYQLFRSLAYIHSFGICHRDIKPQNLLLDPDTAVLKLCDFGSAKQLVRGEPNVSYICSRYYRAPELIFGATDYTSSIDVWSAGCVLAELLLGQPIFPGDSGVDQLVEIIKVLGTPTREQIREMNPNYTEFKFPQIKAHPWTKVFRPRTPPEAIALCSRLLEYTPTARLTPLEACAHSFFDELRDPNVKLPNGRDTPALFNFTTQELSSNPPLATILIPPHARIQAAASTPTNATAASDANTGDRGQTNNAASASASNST
Assay [2] can be described thus: Inhibition of Cu2+-induced HFIP pretreated human amyloid beta (1 to 42) aggregation at 40 uM measured after 24 hrs by ThT-based fluorescence assay relative to control.
Assay [3] in a line: Disaggregation of Cu2+ induced human HFIP-pretreated amyloid beta (1 to 42) preformed fibrils at 40 uM measured after 24 hrs by ThT-based fluorescence assay relative to control.
For assay [4], the system named is SH-SY5Y. Briefly: Neuroprotective activity against Cu2+-mediated amyloid beta (1 to 42) (unknown origin)-induced cytotoxicity in human SH-SY5Y cells assessed as increase in cell viability at 2 uM measured after 24 hrs by MTT assay. It is filed as functional, cell-based.
Assay [5] can be described thus: Metal chelating activity assessed as compound-Al3+ complex formation at 20 uM in the presence of AlCl3 after 30 mins by UV-visible spectrophotometric analysis.
A short description of assay [6]: Metal chelating activity assessed as compound-Zn2+ complex formation at 20 uM in presence of ZnCl2 after 30 mins by UV-visible spectrophotometric analysis.
Assay [7] is described as follows: Metal chelating activity assessed as compound-Cu2+ complex formation at 20 uM in presence of CuCl2 after 30 mins by UV-visible spectrophotometric analysis.
Assay [8] concerns the target T1, Glycogen synthase kinase-3 beta. The experiment in a line: Inhibition of GSK-3beta (unknown origin) at 1 uM using FAM-labeled peptide as substrate preincubated for 10 mins followed by substrate addition by caliper assay relative to control.
Target sequence in this assay (P49841 whole entry, looked up): as the sequence (P49841 whole entry) above
A short description of assay [9]: Metal chelating activity assessed as compound-Mg2+ complex formation at 20 uM in the presence of MgCl2 after 30 mins by UV-visible spectrophotometric analysis.
A short description of assay [10]: Metal chelating activity assessed as compound-Ca2+ complex formation at 20 uM in the presence of CaCl2 after 30 mins by UV-visible spectrophotometric analysis.
Assay [11] can be described thus: Metal chelating activity assessed as Na+-compound complex formation at 20 uM in the presence of NaCl after 30 mins by UV-vis spectrophotometric analysis.
Assay [12] is described as follows: Metal chelating activity assessed as compound-Fe2+ complex formation at 20 uM in the presence of FeSO4 after 30 mins by UV-visible spectrophotometric analysis.
Assay [13] is described as follows: Metal chelating activity assessed as K+-compound complex formation at 20 uM in the presence of KCl after 30 mins by UV-vis spectrophotometric analysis.
The test system of a further assay is PC-12. Briefly: Neuroprotective activity against H2O2-induced oxidative damage in rat PC12 cells assessed as cell viability at 10 uM measured after 24 hrs by MTT assay relative to control. Particulars: PC-12, 24 h, read-out: Activity. In kind it is functional. A general note: Tetrazolium assays rely on reduction of a dye to a coloured formazan, in cell work by metabolically active cells.

A short description of assay [14]: Antioxidant activity assessed as ABTS radical scavenging activity incubated for 6 mins. It is filed as functional.
Assay [15] relates to SH-SY5Y. The experiment in a line: Neuroprotective activity against H2O2-induced oxidative damage in human SH-SY5Y cells assessed as cell viability at 10 uM measured after 24 hrs by MTT assay relative to control. Particulars: read-out: Activity. In kind it is functional.
Assay [16] deals with SH-SY5Y. Briefly: Neuroprotective activity against amyloid beta (1 to 42) (unknown origin)-induced cytotoxicity in SH-SY5Y cells assessed as cell viability at 2 uM measured after 24 hrs by MTT assay (reference value: 78%). In kind it is functional. Particulars: Homo sapiens, read-out: Activity.
The target in assay [17] is Amyloid-beta precursor protein (Homo sapiens) (UniProt P05067). Briefly: Disaggregation of HFIP-pretreated human amyloid beta (1 to 42) preformed fibrils at 40 uM after 24 hrs by ThT-based fluorometric method relative to control.
Sequence of Amyloid-beta precursor protein (Homo sapiens) (P05067 whole entry): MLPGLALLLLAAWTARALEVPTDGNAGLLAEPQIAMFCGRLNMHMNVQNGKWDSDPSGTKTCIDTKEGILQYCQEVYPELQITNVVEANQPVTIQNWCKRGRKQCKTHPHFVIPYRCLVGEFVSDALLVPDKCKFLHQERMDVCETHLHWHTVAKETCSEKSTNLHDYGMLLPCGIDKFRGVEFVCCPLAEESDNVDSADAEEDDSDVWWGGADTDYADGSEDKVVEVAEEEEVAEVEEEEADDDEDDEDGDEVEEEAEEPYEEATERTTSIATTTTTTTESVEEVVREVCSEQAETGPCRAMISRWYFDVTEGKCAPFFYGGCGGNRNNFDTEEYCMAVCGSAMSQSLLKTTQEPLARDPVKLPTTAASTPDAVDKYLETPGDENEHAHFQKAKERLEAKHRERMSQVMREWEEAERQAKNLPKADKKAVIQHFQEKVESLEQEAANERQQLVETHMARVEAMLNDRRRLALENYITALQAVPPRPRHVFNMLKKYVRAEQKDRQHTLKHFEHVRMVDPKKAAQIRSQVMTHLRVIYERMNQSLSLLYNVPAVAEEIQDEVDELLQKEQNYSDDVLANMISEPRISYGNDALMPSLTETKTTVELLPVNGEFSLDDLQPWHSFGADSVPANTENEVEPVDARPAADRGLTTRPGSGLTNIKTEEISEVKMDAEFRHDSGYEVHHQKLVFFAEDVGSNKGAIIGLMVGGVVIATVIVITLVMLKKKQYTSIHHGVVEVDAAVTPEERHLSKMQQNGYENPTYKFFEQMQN

The source of these data is ChEMBL document CHEMBL4340509, “Synthesis and evaluation of novel GSK-3β inhibitors as multifunctional agents against Alzheimer's disease” (Eur J Med Chem, 2019).

What is called IC50 is the point on the concentration scale where inhibition reaches its midpoint. One may read the inhibition as the relative decrease from the control value, in per cent.

SMILES strings stand for the structures. Active and inactive are the calls of the source. No cut-off for these calls is given here.

Turning to `Nc1nccc(-c2cccc(F)c2)c1/N=C/c1ccnc(NC(=O)C2CC2)c1`, half-maximal inhibition in assay [1] (IC50) was put at 891 nM.
As for `Oc1c(I)cc(Cl)c2cccnc12`, the inhibition in assay [2] was 38.8%. The Activity in assay [3] turned out to be 34.9%. Further, in the assay with SH-SY5Y [4], the outcome was Active.
As to `Nc1ncccc1NC(=O)c1ccnc(NC(=O)C2CC2)c1`, the result in assay [5], in [6] and in assay [7] was inactive. In addition, the IC50 in [1] was found to be 629 nM. Moreover, the inhibition in assay [8] was determined as 77%.
Regarding `Nc1ncc(-c2ccncc2)cc1NCc1ccnc(NC(=O)C2CC2)c1`, the result in [9], in [5], in assay [6], in assay [10], in [11] and in [12] was inactive. The outcome in assay [13] was inactive. Besides, in [8], the inhibition was determined as 27%.
In assay [1], `Cc1ccc(-c2cnc(N)c(/N=C/c3ccnc(NC(=O)C4CC4)c3)c2)cc1` displayed an IC50 of 372 nM.
With `Cc1c(C)c2c(c(C)c1O)CCC(C)(C(=O)O)O2` (centres undefined) [TROLOX], the viability at 10 µM with PC-12 was 79%; in the assay on SH-SY5Y [15], 90%. Moreover, the IC50 in assay [14] was determined as 14300 nM.
With `Nc1ncc(-c2ccncc2)cc1NC(=O)c1ccnc(NC(=O)C2CC2)c1`, the outcome in assay [5], in assay [6] and in [7] was inactive. Further, the IC50 in [1] was found to be 199 nM. Moreover, the inhibition in [8] was 99%.
Turning to `Nc1nccc(-c2ccc(F)cc2)c1/N=C/c1ccnc(NC(=O)C2CC2)c1`, in assay [1], the midpoint of inhibition, the IC50, lay at 1200 nM.
Compound `Cc1ccc(-c2ccnc(N)c2/N=C/c2ccnc(NC(=O)C3CC3)c2)cc1` came in with an IC50 in assay [1] of 1250 nM.
Turning to `Nc1nccc(-c2ccc(Cl)cc2)c1/N=C/c1ccnc(NC(=O)C2CC2)c1`, the IC50 in assay [1] is > 2000 nM.
On the same count and under the same terms, the figure for `Nc1ncc(-c2ccc(F)cc2)cc1/N=C/c1ccnc(NC(=O)C2CC2)c1` is 418 nM; for `Cc1csc(-c2cnc(N)c(/N=C/c3ccnc(NC(=O)C4CC4)c3)c2)c1` it is 315 nM.
In the case of `Cc1csc(-c2cnc(N)c(NC(=O)c3ccnc(NC(=O)C4CC4)c3)c2)c1`, the result in assay [5], in [6] and in assay [7] was inactive. In addition, half-maximal inhibition in assay [1] (IC50) was put at 219 nM. For the same compound, the inhibition in assay [8] amounted to 102%.
Regarding `Cc1ccc(-c2cnc(N)c(NC(=O)c3ccnc(NC(=O)C4CC4)c3)c2)cc1`, the result in assay [5], in assay [6] and in [7] was inactive. In addition, in assay [1], the IC50 is 127 nM. For the same compound, the inhibition in assay [8] came out at 99%.
Regarding `COc1cc(/C=C/C(=O)CC(=O)/C=C/c2ccc(O)c(OC)c2)ccc1O` [CURCUMIN], in the assay on SH-SY5Y [16], the viability at 2 µM was 88%. Also, the Activity in assay [17] worked out at 43%.
Take `Nc1ncc(-c2ccccc2)cc1NC(=O)c1ccnc(NC(=O)C2CC2)c1`: the outcome in assay [5], in assay [6] and in assay [7] was inactive. The IC50 in assay [1] came out at 148 nM. In assay [8], the inhibition came to 98%.
In the case of `Nc1nccc(-c2ccccc2)c1/N=C/c1ccnc(NC(=O)C2CC2)c1`, the IC50 in [1] is 633 nM.
For `Nc1ncc(-c2ccc(F)cc2)cc1NC(=O)c1ccnc(NC(=O)C2CC2)c1`, the result in [5], in [6] and in [7] was inactive. The compound also yielded an IC50 in assay [1] of 240 nM. Also, the inhibition in [8] was determined as 95%.
